US12029726B1, “Composition and method of treating conditions associated with extracellular matrix dysfunction by administering micronutrient composition” (priority 2023, dated 2024)

Tested on: cultured human chondrocytes and synovial fibroblasts
Assay: LPS-induced arthritic processes in cultured human synovial cells (IL6, MMP13 release; Col2, Aggr, HA content), summary
Assay type: cell-based
Details: added to cell culture medium with LPS
Description: Inflammation process was initiated by additions of bacterial lipopolysaccharide (LPS) to cell culture medium. Tested parameters included cellular release of interleukin 6 (IL6) as an indicator of induced inflammation, cell culture accumulation of specific extracellular matrix (ECM) components, such as collagen type II (Col2), aggrecan (Aggr) and hyaluronic acid (HA), and release of matrix metalloproteinase 13 (MMP13) as an indicator of cartilage digesting process. Addition of LPS to cell cultures induced inflammation process characterized by dramatic increase in cellular release of IL6 and MMP13 and reduction in cell culture content of Col2, Aggr and HA.
Experiments: For the experiments cells were seeded in 96 well plastic cell culture plates covered with fibronectin (Greiner Bio-One) and grown to a confluent layer at 37° C. and 5% CO2 in corresponding cell culture medium. Cells were supplemented with 3 mcg/ml bacterial lipopolysaccharide (LPS, inflammation inducing treatment) and micronutrient composition were applied for indicated period in growth medium as indicated in the corresponding figure legends. At the end of the incubation cultured cells layers were washed twice with phosphate buffered saline (PBS) and treated in two ways: for the exposition of extracellular matrix (ECM) cells were lysed by 3 min incubation with 0.5% Triton X100/PBS which was followed by 3 min incubation with 25 mM NH4OH/PBS at room temperature or the cells were fixed by using 3% formaldehyde/PBS for one hour at 4° C. […]
Aggrecan, Collagen type II and Hyaluronic Acid content in 96 well plates prepared as described above, which is either exposed ECM or in fixed cells, was assayed by standard sandwich type immunoassay (ELISA, all reagents from Sigma-Aldrich) using rabbit polyclonal anti aggrecan, rabbit polyclonal anti collagen type II antibodies or biotinylated Hyaluronic Acid binding protein as primary treatment and goat anti rabbit IgG antibodies conjugated with horse radish peroxidase (HRP) or HRP-conjugated High Density Streptavidin as secondary treatment, respectively. Assayed component content was estimated by color changing reaction of HRP substrate (TMB substrate solution, Sigma-Aldrich) measured as 450 nm optical density using microplate optical density reader (Molecular Devices). […]
Effects of Micronutrient composition on Release of Inflammation Markers in Cultured Human Synovial Cells: Inflammation process was induced in human chondrocytes cultured in 96 well plates with LPS as described above. […] At the end of indicated incubation period interleukin 6 (IL6) and matrix metalloproteinase 13 (MMP13) levels in conditioned cell culture media were measured by ELISA using assay kits (R&D Systems) in accordance with manufacturer's protocol. […]

SMILES | reversal of LPS-induced arthritic processes (increase in IL6 and MMP13 release, reduction in Col2, Aggr and HA content)
NC(=O)CC[C@H](N)C(=O)O [L-Glutamine] | reversed to different degrees
O=C([O-])/C=C/C(=O)[O-].[Fe+2] [Iron (II) Fumarate] | reversed to different degrees
O=C(O)CCC(=O)C(=O)O [Alpha Keto-Glutarate] | reversed to different degrees
C[S+](CC[C@H](N)C(=O)[O-])C[C@H]1O[C@@H](n2cnc3c(N)ncnc32)[C@H](O)[C@@H]1O (stereo partly shown) [S-Adenosyl Methionine] | reversed to different degrees
